Experimental data taken from ChEMBL document CHEMBL5678818, “Discovery of potent SOS1 inhibitors that block RAS activation via disruption of the RAS-SOS1 interaction” (Proc Natl Acad Sci U S A, 2019).

Key:
[1] = biological target: T1, Ephrin type-B receptor 4 (Homo sapiens) (UniProt P54760); experiment: Inhibition of EPHB4 (unknown origin) assessed as residual activity at 100 nM by KINOMEscan analysis relative to control
T1 sequence (whole entry): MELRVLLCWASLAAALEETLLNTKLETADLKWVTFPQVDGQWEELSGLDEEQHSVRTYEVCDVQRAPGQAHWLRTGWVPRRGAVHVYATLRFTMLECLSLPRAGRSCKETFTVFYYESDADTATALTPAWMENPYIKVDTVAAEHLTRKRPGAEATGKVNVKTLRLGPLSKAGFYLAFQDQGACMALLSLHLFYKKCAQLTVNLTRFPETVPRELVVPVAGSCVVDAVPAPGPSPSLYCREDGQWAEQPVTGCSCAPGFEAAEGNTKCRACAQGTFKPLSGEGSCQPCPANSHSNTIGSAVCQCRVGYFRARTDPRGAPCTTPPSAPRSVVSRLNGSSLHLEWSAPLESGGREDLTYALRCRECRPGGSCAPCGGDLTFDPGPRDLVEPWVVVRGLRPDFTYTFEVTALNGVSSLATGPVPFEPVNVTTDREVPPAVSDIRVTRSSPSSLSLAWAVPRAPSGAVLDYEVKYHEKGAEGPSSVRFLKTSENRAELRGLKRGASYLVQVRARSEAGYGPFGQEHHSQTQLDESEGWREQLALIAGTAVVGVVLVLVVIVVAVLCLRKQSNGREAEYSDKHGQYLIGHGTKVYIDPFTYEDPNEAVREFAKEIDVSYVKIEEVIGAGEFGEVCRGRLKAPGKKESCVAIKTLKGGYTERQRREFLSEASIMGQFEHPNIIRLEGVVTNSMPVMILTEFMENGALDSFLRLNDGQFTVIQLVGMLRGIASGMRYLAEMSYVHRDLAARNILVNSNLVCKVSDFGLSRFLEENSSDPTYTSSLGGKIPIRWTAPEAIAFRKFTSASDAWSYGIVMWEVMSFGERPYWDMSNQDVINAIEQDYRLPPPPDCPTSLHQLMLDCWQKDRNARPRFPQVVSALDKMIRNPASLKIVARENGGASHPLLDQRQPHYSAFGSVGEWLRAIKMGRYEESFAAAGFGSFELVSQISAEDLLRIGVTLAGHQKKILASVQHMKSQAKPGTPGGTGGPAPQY

[2] = biological target: Tyrosine-protein kinase FRK (Homo sapiens) (UniProt P42685); experiment: Inhibition of FRK (unknown origin) assessed as residual activity at 100 nM by KINOMEscan analysis relative to control
[3] = biological target: T2, Serine/threonine-protein kinase BRSK2 (Homo sapiens) (UniProt Q8IWQ3); experiment: Inhibition of BRSK2 (unknown origin) assessed as residual activity at 100 nM by KINOMEscan analysis relative to control
T2 sequence (whole entry): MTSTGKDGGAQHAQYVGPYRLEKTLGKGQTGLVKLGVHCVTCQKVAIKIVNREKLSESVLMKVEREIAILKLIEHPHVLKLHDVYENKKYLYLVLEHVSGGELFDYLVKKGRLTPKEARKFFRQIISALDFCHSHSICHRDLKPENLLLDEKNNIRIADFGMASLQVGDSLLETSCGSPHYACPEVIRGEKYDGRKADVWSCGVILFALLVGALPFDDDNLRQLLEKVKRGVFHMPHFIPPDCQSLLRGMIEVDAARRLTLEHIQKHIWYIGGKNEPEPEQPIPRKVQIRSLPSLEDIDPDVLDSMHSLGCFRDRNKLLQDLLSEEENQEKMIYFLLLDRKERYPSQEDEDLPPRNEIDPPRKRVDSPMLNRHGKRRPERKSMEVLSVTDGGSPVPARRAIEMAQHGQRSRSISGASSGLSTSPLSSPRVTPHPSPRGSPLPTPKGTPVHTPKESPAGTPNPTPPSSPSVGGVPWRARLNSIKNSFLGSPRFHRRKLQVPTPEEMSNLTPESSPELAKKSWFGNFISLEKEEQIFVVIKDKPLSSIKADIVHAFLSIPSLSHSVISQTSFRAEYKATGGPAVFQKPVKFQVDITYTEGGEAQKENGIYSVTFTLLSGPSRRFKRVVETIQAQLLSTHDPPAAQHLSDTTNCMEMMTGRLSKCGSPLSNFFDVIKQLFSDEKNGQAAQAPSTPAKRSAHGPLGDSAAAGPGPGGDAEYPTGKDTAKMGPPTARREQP

[4] = biological target: Serine/threonine-protein kinase PLK2 (Homo sapiens) (UniProt Q9NYY3); experiment: Inhibition of PLK2 (unknown origin) assessed as residual activity at 100 nM by KINOMEscan analysis relative to control
[5] = biological target: Phosphatidylinositol 4,5-bisphosphate 3-kinase catalytic subunit alpha isoform (Homo sapiens) (UniProt P42336); experiment: Inhibition of PIK3CA (unknown origin) assessed as residual activity at 100 nM by KINOMEscan analysis relative to control
[6] = biological target: Serine/threonine-protein kinase SBK1 (Homo sapiens) (UniProt Q52WX2); experiment: Inhibition of SBK1 (unknown origin) assessed as residual activity at 100 nM by KINOMEscan analysis relative to control
[7] = biological target: Rho-associated protein kinase 2 (Homo sapiens) (UniProt O75116); experiment: Inhibition of ROCK2 (unknown origin) assessed as residual activity at 100 nM by KINOMEscan analysis relative to control
[8] = biological target: Ribosomal protein S6 kinase alpha-1 (Homo sapiens) (UniProt Q15418); experiment: Inhibition of C-terminal RSK1 kinetic domain 2 (unknown origin) assessed as residual activity at 100 nM by KINOMEscan analysis relative to control
[9] = biological target: T3, NUAK family SNF1-like kinase 2 (Homo sapiens) (UniProt Q9H093); experiment: Inhibition of SNARK (unknown origin) assessed as residual activity at 100 nM by KINOMEscan analysis relative to control
T3 sequence (whole entry): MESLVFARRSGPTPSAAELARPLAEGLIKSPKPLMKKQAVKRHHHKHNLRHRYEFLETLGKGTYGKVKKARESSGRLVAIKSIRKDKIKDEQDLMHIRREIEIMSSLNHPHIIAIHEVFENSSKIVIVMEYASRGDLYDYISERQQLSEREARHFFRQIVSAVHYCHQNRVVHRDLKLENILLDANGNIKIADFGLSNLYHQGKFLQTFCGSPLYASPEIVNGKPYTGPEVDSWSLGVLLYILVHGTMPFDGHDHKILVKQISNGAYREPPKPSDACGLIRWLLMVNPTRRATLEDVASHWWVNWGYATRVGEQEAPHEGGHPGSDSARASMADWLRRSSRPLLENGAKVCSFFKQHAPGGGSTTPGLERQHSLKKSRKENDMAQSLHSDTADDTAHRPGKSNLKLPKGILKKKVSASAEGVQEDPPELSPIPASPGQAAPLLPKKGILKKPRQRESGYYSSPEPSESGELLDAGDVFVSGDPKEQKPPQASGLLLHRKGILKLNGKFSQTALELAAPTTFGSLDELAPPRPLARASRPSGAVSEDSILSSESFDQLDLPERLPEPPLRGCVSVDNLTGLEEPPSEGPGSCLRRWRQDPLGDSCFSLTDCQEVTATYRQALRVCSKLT

Chain of Phosphatidylinositol 4,5-bisphosphate 3-kinase catalytic subunit alpha isoform (Homo sapiens) (P42336 whole entry, canonical isoform): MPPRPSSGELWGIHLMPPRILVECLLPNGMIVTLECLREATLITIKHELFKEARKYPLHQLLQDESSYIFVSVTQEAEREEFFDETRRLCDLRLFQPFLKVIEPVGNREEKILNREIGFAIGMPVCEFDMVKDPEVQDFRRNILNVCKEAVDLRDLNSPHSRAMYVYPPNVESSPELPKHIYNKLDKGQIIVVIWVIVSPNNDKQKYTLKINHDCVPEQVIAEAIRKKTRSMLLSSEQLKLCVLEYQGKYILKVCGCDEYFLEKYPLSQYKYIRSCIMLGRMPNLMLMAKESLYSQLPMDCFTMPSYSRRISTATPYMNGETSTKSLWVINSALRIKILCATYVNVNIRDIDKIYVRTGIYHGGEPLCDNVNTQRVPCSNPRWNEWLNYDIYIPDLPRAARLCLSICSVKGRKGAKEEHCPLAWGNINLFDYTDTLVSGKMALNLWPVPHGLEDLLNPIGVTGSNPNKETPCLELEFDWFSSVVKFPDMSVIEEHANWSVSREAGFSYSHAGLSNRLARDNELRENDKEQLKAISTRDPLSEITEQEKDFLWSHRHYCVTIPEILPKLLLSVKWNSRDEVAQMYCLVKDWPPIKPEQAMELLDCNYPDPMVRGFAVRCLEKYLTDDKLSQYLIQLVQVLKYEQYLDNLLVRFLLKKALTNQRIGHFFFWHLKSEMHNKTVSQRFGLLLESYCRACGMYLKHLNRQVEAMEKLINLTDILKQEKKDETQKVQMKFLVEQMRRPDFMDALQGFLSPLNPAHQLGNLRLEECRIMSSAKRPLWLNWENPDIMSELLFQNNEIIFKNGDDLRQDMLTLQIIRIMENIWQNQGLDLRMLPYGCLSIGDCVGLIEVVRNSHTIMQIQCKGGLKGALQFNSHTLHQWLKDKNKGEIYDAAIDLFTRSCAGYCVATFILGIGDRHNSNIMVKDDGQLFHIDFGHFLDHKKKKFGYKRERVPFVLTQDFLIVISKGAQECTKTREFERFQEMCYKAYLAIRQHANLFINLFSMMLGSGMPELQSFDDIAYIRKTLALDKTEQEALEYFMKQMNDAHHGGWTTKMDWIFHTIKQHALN
Chain of Tyrosine-protein kinase FRK (Homo sapiens) (P42685 whole entry): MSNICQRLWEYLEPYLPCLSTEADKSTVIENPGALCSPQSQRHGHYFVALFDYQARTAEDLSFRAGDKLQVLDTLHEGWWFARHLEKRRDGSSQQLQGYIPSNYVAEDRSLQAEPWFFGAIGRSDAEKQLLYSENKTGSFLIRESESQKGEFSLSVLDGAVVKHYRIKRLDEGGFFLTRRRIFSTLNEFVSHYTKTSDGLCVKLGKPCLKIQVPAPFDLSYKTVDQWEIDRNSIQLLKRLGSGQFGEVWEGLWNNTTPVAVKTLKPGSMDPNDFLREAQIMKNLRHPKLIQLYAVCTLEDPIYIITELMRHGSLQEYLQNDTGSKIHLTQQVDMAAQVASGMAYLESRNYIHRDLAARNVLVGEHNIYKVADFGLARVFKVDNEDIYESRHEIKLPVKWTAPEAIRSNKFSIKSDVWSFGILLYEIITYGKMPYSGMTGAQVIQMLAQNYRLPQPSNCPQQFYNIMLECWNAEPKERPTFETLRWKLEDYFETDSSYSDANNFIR
Chain of Serine/threonine-protein kinase SBK1 (Homo sapiens) (Q52WX2 whole entry): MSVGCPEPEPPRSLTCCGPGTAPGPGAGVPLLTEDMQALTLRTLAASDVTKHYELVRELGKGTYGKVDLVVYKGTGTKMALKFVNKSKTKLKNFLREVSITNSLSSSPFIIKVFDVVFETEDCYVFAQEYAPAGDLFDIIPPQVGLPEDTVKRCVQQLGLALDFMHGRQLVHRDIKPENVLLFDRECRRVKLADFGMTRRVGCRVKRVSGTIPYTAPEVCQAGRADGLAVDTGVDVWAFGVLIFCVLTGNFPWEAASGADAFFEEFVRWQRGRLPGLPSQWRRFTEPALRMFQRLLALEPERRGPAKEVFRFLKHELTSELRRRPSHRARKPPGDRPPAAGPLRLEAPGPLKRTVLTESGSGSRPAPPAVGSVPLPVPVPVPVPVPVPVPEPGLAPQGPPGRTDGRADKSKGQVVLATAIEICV
Chain of Rho-associated protein kinase 2 (Homo sapiens) (O75116 whole entry, looked up, the tested form may be a part): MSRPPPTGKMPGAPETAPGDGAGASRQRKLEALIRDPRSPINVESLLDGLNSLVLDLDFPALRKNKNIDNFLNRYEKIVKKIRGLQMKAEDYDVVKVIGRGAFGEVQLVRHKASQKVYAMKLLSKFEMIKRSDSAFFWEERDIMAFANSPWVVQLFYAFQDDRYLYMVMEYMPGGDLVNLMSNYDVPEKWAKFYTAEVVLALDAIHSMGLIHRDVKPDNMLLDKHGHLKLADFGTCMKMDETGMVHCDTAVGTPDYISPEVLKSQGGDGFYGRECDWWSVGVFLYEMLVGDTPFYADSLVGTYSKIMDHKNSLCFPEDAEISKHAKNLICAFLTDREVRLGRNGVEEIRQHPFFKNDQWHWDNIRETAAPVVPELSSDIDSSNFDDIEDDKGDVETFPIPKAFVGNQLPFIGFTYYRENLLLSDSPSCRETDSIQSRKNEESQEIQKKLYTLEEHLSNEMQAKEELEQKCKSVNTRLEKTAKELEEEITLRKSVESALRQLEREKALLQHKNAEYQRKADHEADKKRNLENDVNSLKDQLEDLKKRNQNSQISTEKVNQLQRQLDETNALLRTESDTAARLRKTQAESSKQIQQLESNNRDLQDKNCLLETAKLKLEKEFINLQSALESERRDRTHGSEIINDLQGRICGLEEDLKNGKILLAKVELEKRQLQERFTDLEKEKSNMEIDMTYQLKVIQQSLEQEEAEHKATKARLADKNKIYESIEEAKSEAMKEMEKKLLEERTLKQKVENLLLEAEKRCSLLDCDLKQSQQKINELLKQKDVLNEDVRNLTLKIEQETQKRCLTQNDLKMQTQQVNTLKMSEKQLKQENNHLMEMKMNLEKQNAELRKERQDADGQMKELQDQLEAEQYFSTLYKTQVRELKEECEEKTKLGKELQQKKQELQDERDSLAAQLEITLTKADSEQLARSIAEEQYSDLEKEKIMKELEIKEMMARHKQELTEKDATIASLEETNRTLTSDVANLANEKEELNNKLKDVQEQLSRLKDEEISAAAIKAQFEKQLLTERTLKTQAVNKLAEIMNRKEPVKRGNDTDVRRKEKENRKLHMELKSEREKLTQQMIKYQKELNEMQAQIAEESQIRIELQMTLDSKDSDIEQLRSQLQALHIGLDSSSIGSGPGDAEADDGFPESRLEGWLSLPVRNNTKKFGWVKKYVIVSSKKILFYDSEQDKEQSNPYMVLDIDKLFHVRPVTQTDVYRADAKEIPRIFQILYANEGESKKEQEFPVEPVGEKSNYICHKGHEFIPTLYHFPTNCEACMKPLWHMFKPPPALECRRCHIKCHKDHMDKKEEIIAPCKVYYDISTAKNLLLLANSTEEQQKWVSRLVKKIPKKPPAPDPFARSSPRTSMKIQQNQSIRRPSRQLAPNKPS
Chain of Ribosomal protein S6 kinase alpha-1 (Homo sapiens) (Q15418 whole entry, the tested form may be a part): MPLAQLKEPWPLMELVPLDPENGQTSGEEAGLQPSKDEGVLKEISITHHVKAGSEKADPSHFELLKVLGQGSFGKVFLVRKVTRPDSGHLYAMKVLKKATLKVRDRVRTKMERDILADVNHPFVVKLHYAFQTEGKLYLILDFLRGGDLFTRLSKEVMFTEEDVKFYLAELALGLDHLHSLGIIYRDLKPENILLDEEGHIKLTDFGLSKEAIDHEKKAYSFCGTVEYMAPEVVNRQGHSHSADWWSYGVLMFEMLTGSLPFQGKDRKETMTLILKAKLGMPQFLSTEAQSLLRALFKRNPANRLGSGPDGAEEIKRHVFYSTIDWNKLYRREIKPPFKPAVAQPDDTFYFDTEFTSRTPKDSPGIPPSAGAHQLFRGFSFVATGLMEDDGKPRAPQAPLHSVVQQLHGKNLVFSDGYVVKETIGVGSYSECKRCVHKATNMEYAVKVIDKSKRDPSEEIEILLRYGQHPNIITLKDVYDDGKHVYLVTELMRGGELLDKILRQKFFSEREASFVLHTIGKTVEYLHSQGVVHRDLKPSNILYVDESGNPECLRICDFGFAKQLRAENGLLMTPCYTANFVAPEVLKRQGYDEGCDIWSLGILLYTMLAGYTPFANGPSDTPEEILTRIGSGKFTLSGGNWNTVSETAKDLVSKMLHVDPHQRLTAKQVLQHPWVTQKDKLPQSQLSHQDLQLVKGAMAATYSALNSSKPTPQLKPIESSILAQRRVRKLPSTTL
Chain of Serine/threonine-protein kinase PLK2 (Homo sapiens) (Q9NYY3 whole entry, looked up, canonical isoform): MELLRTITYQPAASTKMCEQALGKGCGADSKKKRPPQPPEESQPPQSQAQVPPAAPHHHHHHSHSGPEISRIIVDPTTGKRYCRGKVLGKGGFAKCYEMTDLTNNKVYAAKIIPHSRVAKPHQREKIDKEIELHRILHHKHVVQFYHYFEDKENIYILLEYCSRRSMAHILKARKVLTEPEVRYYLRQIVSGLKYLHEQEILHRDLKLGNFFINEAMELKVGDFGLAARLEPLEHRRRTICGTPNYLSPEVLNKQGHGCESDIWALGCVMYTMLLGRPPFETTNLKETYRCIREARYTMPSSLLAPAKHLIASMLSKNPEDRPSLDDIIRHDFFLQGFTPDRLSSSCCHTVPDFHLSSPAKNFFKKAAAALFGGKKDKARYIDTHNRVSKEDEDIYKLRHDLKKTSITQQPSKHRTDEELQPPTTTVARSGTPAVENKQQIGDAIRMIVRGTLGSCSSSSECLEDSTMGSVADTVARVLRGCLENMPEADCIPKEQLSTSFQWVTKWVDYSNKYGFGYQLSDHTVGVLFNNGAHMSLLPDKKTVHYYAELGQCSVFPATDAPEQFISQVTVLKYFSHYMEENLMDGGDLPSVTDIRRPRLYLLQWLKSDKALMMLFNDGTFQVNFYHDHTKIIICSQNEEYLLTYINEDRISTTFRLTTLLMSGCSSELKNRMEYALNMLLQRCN

## COc1cc2ncnc(N[C@H](C)c3cccc4ccccc34)c2cc1OC
[1]
  Activity: 75%
[2]
  Activity: 93%
[3]
  Activity: 100%
[4]
  Activity: 92%
[5]
  Activity: 66%
[6]
  Activity: 81%
[7]
  Activity: 87%
[8]
  Activity: 86%
[9]
  Activity: 92%
